According to patent publication US20250313532A1, “ALDH2 INHIBITORS AND METHODS OF USE THEREOF” (UNIVERSITY OF MARYLAND, BALTIMORE, priority 2022, published 2025):
Where two headings read alike, the source gives them in different places.

Legend:
[1] = test system: primary human hepatocytes; assay: Cytotoxicity / cell viability in primary human hepatocytes (CCK-8); format: cell-based; conditions: concentration up to 200 uM, 24 h
Method: Initial cell viability assays are performed on the YA7068 and new analogs on primary human hepatocytes (see letter from Prof. Hongbing Wang) using the commercially available CellTiter-Glo® 2.0 (Promega) as described by the manufacturer. […] These studies allow us to assess if the compounds are non-toxic for human liver cells.
Cytotoxicity studies of YA7068 to primary human hepatocytes were performed.
Human primary hepatocytes were maintained in DMEM medium with 10% fetal bovine serum (FBS) and 1% PS (penicillin/streptomycin). The cells were incubated in 37° C. incubator with 5% CO2. The number of viable cells was determined using the CCK-8 assay. Briefly, cells were seeded at a density of 5000 cells/well in 96-well plates, a nd were treated in triplicate with different concentrations of individual compounds (0, 0.1, 0.5, 1, 5, 10, 25, 50, 100, and 200 PM) for 24 h. Then, 10 μL of CCK-8 working solution was added to each well and incubated for appropriate times (0.5-4 h) before subjecting to a microplate reader for OD detection at 450 nm.

ALDH2 = biological target: T1, ALDH2 (Homo sapiens, UniProt P05091); assay: Fluorescence-based ALDH2 enzymatic inhibition assay (NADH fluorescence); format: biochemical; conditions: for IC50: ALDH2 50 nM, formaldehyde 300 μM, NAD+ 1.2 mM, pH 7.4, 25° C.; for fold more potent than hit CB-01 (ALDH2 IC50): relative to parent screening hit CB-01
T1 construct: purchased Abcam 87415
T1 sequence (P05091 18-517): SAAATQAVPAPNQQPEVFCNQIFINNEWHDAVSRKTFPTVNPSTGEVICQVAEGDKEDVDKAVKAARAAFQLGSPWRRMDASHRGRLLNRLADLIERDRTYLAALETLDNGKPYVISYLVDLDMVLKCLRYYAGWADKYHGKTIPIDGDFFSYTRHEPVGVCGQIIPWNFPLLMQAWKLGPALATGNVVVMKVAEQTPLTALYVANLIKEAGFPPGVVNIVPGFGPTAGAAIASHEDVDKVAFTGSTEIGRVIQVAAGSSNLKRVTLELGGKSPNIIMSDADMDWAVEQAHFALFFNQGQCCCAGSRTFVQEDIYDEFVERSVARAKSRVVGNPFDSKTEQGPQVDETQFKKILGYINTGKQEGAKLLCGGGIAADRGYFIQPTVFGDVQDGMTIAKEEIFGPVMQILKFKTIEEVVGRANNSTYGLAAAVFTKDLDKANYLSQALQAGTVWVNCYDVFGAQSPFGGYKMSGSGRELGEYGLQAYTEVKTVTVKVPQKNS
Method: Fluorescence-based ALDH2 assay was used to test the potencies of new compounds.
IC50 values of synthesized compounds is tested by an ALDH2 enzymatic assay obtained by modifying a published protocol, for example by Yang et al. This assay measures an inhibitor-caused fluorescence decrease of the NADH generated from the ALDH2 catalytic reaction. Inhibitor binding causes a decrease in the production of NADH that affects the ability of the enzyme to turnover its substrate aldehyde and decreased the production of carboxylic acid. The assay components include: ALDH2 (50 nM) (Abcam #87415), substrate formaldehyde (300 μM), NAD^+ (1.2 mM), and testing compound in phosphate buffer (50 mM, pH 7.4) with 0.01% Tween 20 at 25° C. The assay is performed in black 384-well plates (40 L total volume; Costar). […] The negative control contains the enzyme, substrate solution in phosphate buffer without the addition of the substrate formaldehyde. Measurements are performed 10 min after adding the testing compound by excitation of NAD^+ at 340 nm, which leads to fluorescence emission at 450 nm. The IC50 values of testing compounds is determined from experiments performed in a concentration-dependent manner of testing compounds by fitting the data to a sigmoidal dose-response equation in GraphPad Prism. All experiments are performed in triplicate.
An HTS ALDH2 enzymatic assay is established and can be used to measure the inhibitory potency of compounds. […] The assay was used for temperature, pH value, and concentration of ALDH2 in the 384-well format; several independent test runs were performed to assess assay parameters.
To determine the performance of the established ALDH2 activity assay under HTS conditions, a pilot screen of 980 compounds was performed. Compounds were tested in triplicate at concentrations ranging from 10 nM to 50 μM (0.1% DMSO). Raw assay data were analyzed using DataWarrior software. The IC50 value of each compound was calculated. “High Control” represents wells from the same plate containing ALDH2 (50 nM), formaldehyde (300 μM), and NAD^+ (1.2 mM) in phosphate buffer (50 mM, pH 7.4) with 0.01% Tween 20 at 25° C. and DMSO (0.1%) while “Low controls” correspond to the wells from the same plate containing ALDH2 (50 nM) treated with and NAD^+ (1.2 mM) in phosphate buffer (50 mM, pH 7.4) with 0.01% Tween 20 at 25° C. and DMSO (0.1%). […] Two values were subsequently calculated: 1) the average IC50 values of all the compounds tested in the screen, and 2) three times the standard deviation. The sum of these two values was used as the cutoff parameter.

OATP1B1 = biological target: T2, OATP1B1 (Homo sapiens, UniProt Q9Y6L6); assay: OATP1B1-mediated uptake, OATP1B1-transfected vs wild-type HEK293 cells; format: in vitro ADME
T2 construct: expressed in transfected cells; host or cells: HEK293
T2 sequence (Q9Y6L6 1-691): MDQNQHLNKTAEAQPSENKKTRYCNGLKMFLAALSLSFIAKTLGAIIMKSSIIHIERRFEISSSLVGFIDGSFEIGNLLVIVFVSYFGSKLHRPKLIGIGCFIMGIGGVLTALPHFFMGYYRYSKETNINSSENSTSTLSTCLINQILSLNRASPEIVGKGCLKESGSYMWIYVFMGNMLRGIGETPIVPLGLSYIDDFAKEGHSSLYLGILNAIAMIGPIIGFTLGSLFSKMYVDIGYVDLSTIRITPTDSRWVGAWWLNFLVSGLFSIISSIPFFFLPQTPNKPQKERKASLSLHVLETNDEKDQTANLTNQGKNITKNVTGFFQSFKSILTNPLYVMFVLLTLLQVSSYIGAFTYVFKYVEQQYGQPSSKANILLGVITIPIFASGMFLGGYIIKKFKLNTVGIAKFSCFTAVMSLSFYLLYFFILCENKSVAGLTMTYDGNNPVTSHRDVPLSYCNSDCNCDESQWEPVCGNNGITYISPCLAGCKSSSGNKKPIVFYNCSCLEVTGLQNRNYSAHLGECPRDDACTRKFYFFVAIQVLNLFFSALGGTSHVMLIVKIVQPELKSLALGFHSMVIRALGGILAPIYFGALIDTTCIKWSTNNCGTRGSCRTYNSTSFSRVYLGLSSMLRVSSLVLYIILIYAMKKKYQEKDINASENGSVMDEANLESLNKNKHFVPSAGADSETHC
Method: The uptake of inhibitor YA7068 by the liver-specific transporter OATP1B1 has been evaluated using a protocol similar to the one in a recent study on OCT transporters by Obianom et al. After incubating OATP1B1-transfected HEK293 cells with the compound, the intracellular concentrations of YA7068 was >2.5-fold higher than that after incubating the wild-type HEK293 cells with the compound (FIG. 3D). In sum, compound YA7068 is developed as a novel liver-targeting potent inhibitor of ALDH2.
The OATP1-mediated uptake of synthesized compounds is assessed by an LC-MS-based method employing the OATP1B1- or OATP1B3-expressing HEK293 cells. Briefly, cells are washed twice with uptake buffer to remove floating cells. Compounds diluted in the uptake buffer are replaced in the wells and incubated for 10 min. For screening of compounds at a single concentration and one-time point, the cells are incubated with 100 μM of testing compounds. In each experiment, pitavastatin is used as a positive control. The incubation is stopped by removing the solution and adding […] of ice-cold uptake buffer. The cells are washed twice with the buffer. After washing, 200 μL of lysing solution (1:1 MeOH/H2O) containing internal standard is added. […] Aliquots of the supernatant are transferred to new tubes and drug concentration is quantified by LC-MS/MS. […]

IC50 (ALDH2; read-out: IC50, inhibition of the enzymatic activity of ALDH2) [nM] | fold more potent than hit CB-01 (ALDH2 IC50) (ALDH2) [fold] | intracellular concentration, OATP1B1-transfected HEK293 cells vs wild-type HEK293 cells (OATP1B1; after incubating cells with the compound) [fold] | substrate for hepatocyte-specific OATP1B1 (OATP1B1; result in words) | IC50 (ALDH2; read-out: IC50, ALDH2 enzymatic assay) [nM] | Structure (SMILES) | cytotoxicity for primary human hepatocytes [1]
62 | > 170 | > 2.5 | functions as a substrate |  | CS(=O)(=O)Nc1ccc(-c2cc3ccc(OCc4cccc(C(=O)O)c4)cc3oc2=O)cc1 [YA7068, 3-(((3-(4-(Methylsulfonamido)phenyl)-2-oxo-2H-chromen-7-yl)oxy)methyl)benzoic acid] | did not exhibit any cytotoxicity
 | 5.8 |  |  | 1900 | CS(=O)(=O)Nc1ccc(-c2cn3cc(C(=O)O)sc3n2)cc1 [YA7241, 6-(4-(Methylsulfonamido)phenyl)imidazo[2,1-b]thiazole-2-carboxylic acid] | 
